Measured values taken from patent US20150190416A1, “FILAGGRIN PRODUCTION PROMOTER, THERAPEUTIC AGENT FOR DISEASES ASSOCIATED WITH REDUCTION IN PRODUCTION OF FILAGGRIN, AND METHOD FOR SCREENING FOR SAID THERAPEUTIC AGENT” (KYOTO UNIVERSITY, priority 2012, published 2015).

Columns and labels:
GPR142 = assay: G protein-coupled receptor (GPCR) array in NHEK cells, GPR142 (Example 3); format: cell-based, human; conditions: Compound 1 1 μM, 3 days
Description: In this example, the expression-increasing effect of Compound 1 on a GPCR in NHEK cells was confirmed by using a GPCR array.
1) 5×10^4 cells/well of NHEK cells (Invitrogen) were plated on a 24-well plate, and then 500 μl of a culture medium containing a medium for proliferating normal human epidermal keratinocytes (HuMedia-KG2, KURABO INDUSTRIES LTD.) supplemented with hEGF (0.1 ng/ml), insulin (10 μg/ml), hydrocortisone (0.5 μg/ml), gentamycin (50 μg/ml), amphotericin B (50 ng/ml), and bovine brain pituitary extract (BPE) (0.4%, v/v) were added to the plate, and the cells were cultured under the conditions of 37° C. and 5% CO2 for from 3 to 4 days until the 80 to 85% confluent state was achieved.
2) Next, a DMSO solution of Compound 1 was added to the medium at 1 μM per well, and culture was further conducted for 3 days without changing the medium. In addition, regarding the system to which only CaCl2 (1.5 mM in terms of Ca) as Ca was added and the system to which both Compound 1 and CaCl2 (1.5 mM in terms of Ca) as Ca were added, the culture was conducted in a similar manner for 3 days. As a control example, a solvent only (vehicle) was added.
3) An extraction reagent (TRIzol™, Invitrogen) was used, and according to the manufacturer's protocol, total RNA was extracted from each of cells treated in the step 2). A reverse transcriptase reagent (Prime Script™, Takara) was used, and according to the manufacturer's protocol, cDNA was prepared from the total RNA. Next, a TaqMan™ human GPCR array (AB 4365295, Applied Biosystems) was used, and the analysis was conducted by an ABI PRISM™ 7900HT gene analyzer (Applied Biosystems). The result of measurement was shown as the comparison of the cycle number (ΔCt value) to 18S ribosomal RNA as a control (comparative Ct method).

FLG protein = FLG protein in cultured human normal skin, immunohistostaining (Example 12); format: cell-based; conditions: 1 μM, 4 days
Text: In this example, the expression-increasing effect of Compound 1 (N-quinolylbenzamide derivative) on FLG monomer was examined by using human normal skin. The expression of the FLG monomer was confirmed by an immunohistostaining method using an anti-human FLG antibody. The medium used was a medium for proliferating normal human epidermal keratinocytes (HuMedia-KG2, KURABO INDUSTRIES LTD.). It should be noted that, in this example, surplus portions of normal skin derived from extirpation of portions of a skin disease were used under the agreement by the donor through Ethics Committee of Kyoto University.
1) Human normal skin (with a size of 5×5×5 mm) was put on a transwell of a 24-well transwell plate, 500 μl of the medium, to which Compound 1 (1 μM) or a control (vehicle (DMSO)) was added, were added to the lower part, and the skin was cultured. After culture for 2 days, the medium was exchanged for the same medium.
2) After 4 days, the cultured skin was collected, and was soaked in 10% formalin overnight, and thereafter, a paraffin section having a thickness of […] was prepared according to a conventional method. […]

FLG monomer = assay: FLG monomer-producing effect in atopic dermatitis mouse model (NC/Nga), Western blotting (Example 15); format: in vivo; conditions: oral 0.75 mg every other day, 2 weeks, ear epidermis
Description: Experiments were conducted with raising 6- to 10-week-old atopic dermatitis-developing NC/Nga mice with mites (Japan SLC, Inc.) under a normal environment. Namely, 500 μl of a solution obtained by dissolving Compound 1 at 1.5 mg/ml in a methyl cellulose solution (0.5 W/V % Methyl Cellulose 400 Solution, Wako, 133-14255) were orally administered to an NC/Nga mouse developing dermatitis majorly in the ear auricles and the head (0.75 mg of Compound 1 was administered to the mouse per time) every other day. As a control, 500 μl of the methyl cellulose solution was orally administered every other day. The experiments were conducted by using five mice in each of a Compound 1-administered group and a control group.
2 weeks after the beginning of administration, ears of each mouse were cut under anesthesia, the skin of the cut ear was peeled off by pinching cartilage, and the skin on the dermal side was soaked in PBS containing 20 mM EDTA at 37° C. for 30 minutes. Next, the epidermis of the ear was peeled off and […] of Lysis buffer (0.1 M Tris-HCl (pH 9.0), 6 M Urea, 1% 2-mercapto-ethanol, 1% SDS, 1 mM EDTA, and Protease inhibitor cocktail) were added to the epidermis. The epidermis was homogenized with an electrically powered pestle, and the homogenized cells were centrifuged at 15,000 rpm at 4° C. for 20 minutes. […]

## CCc1ccc(OCc2ccccc2C(=O)Nc2ccc3nc(C)cc(N)c3c2)cc1.Cl [Compound 1, N-(4-Amino-2-methyl-6-quinolyl)-2-[(4-ethylphenoxy)methyl]benzamide hydrochloride]
GPR142; Ca 1.5 mM
  GPR142 mRNA expression (GPCR array), in words: expression was induced
GPR142; CaCl2 1.5 mM in terms of Ca, control 29.2
  GPR142: cycle number (ΔCt value) to 18S ribosomal RNA: −4.9
FLG protein
  development of the stratum corneum: greater than that of the control
FLG protein; immunohistostaining
  FLG protein within the skin: markedly increased
FLG monomer
  production of FLG monomer (relative to GAPDH): clearly promoted the production of FLG monomer
